Test results published in ChEMBL document CHEMBL1146926, “Fluorescent non-imidazole histamine H3 receptor ligands with nanomolar affinities” (Bioorg Med Chem Lett, 2006).

target: Histamine H3 receptor (Homo sapiens, UniProt Q9Y5N1); assay: Displacement of [125I]iodoproxyfan from human histamine H3 receptor expressed in CHOK1 cells; assay type: cell-based, CHO-K1
Sequence (Q9Y5N1 whole entry): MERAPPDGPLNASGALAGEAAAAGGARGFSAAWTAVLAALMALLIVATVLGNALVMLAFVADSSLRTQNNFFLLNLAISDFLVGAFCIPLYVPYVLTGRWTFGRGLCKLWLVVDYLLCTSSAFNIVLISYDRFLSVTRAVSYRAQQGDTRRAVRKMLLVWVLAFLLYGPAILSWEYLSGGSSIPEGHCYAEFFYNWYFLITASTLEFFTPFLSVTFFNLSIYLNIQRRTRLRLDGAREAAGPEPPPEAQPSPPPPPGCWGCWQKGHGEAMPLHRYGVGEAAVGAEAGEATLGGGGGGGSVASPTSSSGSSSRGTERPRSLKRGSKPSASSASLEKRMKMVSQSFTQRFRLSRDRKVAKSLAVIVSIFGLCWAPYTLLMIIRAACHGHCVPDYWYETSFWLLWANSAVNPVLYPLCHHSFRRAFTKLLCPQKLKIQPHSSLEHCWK

In order of rising Ki:
1. O=[N+]([O-])c1ccc(NCCCCCN2CCCCC2)c2nonc12  11 nM
2. N#Cc1c2ccccc2cn1CCCCCCN1CCCCC1  31 nM
3. N#Cc1c2ccccc2cn1CCCCCN1CCCCC1  31 nM
4. O=[N+]([O-])c1ccc(NCCCCN2CCCCC2)c2nonc12  170 nM
5. N#Cc1c2ccccc2cn1CCCCN1CCCCC1  178 nM
6. N#Cc1c2ccccc2cn1CCCN1CCCCC1  351 nM
